Measured values from US20240092835A1, “NOVEL PEPTIDES CAPABLE OF ALTERING NK CELL ACTIVITY” (Massachusetts Institute of Technology, priority 2022, published 2024).

Key:
HLA-E = biological target: T1, HLA-E (Homo sapiens, UniProt P13747); experiment: HLA-E surface stabilization assay with RMA-S/HLA-E cells; type: cell-based; conditions: 30 μM peptide, 16 hours, anti-HLA-E antibody
T1 construct: expressed in transfected cells; host or cells: RMA-S/HLA-E cells (antigen processing-defective lymphoma cell line)
Description: HLA-E surface expression was assessed by measuring geometric mean fluorescence intensity (GeoMFI) in RMA-S cells following immunofluorescence staining with an anti-HLA-E antibody (Table 14). Increased GeoMFI was indicative of increased HLA-E surface expression stability following novel peptide exposures (FIG. 3).

NKG2A−/NKG2C+ NK cells = experiment: NK cell activation markers in NKG2A-/NKG2C+ NK cells incubated with peptide and K562 expressing HLA-E (activation); type: cell-based, human; conditions: for effect on NKG2A−/NKG2C+ NK cell activation (in words): K562 expressing HLA-E, CD107a, IFNG, TNF, CCL3; for percentage of CCL3+ NK cells / percentage of CD107+ NK cells / percentage of IFNG+ NK cells / percentage of TNF+ NK cells: NKG2A-/NKG2C+ NK cells, K562/HLA-E
In short: (§1)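 K562 + HLA-E, pulsed with human/CMV proteome peptides → incubated with sorted NK subsets → surface marker staining, % positive cells. Increase = activation; decrease = inhibition.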

NKG2A−/NKG2C− NK cells = experiment: NK cell activation markers in control NKG2A-/NKG2C- NK cells incubated with peptide and K562 expressing HLA-E; type: cell-based, human
In short: as §1

NKG2A+/NKG2C− NK cells = experiment: NK cell activation markers in NKG2A+/NKG2C- NK cells incubated with peptide and K562 expressing HLA-E (inhibition); type: cell-based, human; conditions: for percentage of CCL3+ NK cells / percentage of CD107a+ NK cells / percentage of IFNG+ NK cells / percentage of TNF+ NK cells: NKG2A+/NKG2C- NK cells, K562/HLA-E
In short: as §1

HLA-E surface expression stability (GeoMFI) (HLA-E; Trial 1): 3203 GeoMFI
HLA-E surface expression stability (GeoMFI) (HLA-E; Trial 2): 3535 GeoMFI
HLA-E surface expression stability (GeoMFI) (HLA-E; Trial 3): 3903 GeoMFI
HLA-E surface expression stability (GeoMFI) (HLA-E; Trial 4): 4464 GeoMFI
Sequence: TLPERTLYL [human7, peptide ECEL1 269-277 derived from the human proteome]
effect on NKG2A−/NKG2C+ NK cell activation (in words) (NKG2A−/NKG2C+ NK cells; listed as SEQ ID NO. 11): strong activating effects
effect on NKG2A−/NKG2C+ NK cell activation (in words) (NKG2A−/NKG2C+ NK cells; listed as h7): strong inhibitory and activating effects
percentage of CCL3+ NK cells (NKG2A−/NKG2C+ NK cells; Trial 1): 77%
percentage of CD107+ NK cells (NKG2A−/NKG2C+ NK cells; Trial 1): 76.2%
percentage of IFNG+ NK cells (NKG2A−/NKG2C+ NK cells; Trial 1): 66.6%
percentage of TNF+ NK cells (NKG2A−/NKG2C+ NK cells; Trial 1): 54.5%
percentage of CCL3+ NK cells (NKG2A−/NKG2C+ NK cells; Trial 2): 92.4%
percentage of CD107+ NK cells (NKG2A−/NKG2C+ NK cells; Trial 2): 89.5%
percentage of IFNG+ NK cells (NKG2A−/NKG2C+ NK cells; Trial 2): 87.3%
percentage of TNF+ NK cells (NKG2A−/NKG2C+ NK cells; Trial 2): 79.9%
percentage of CCL3+ NK cells (NKG2A−/NKG2C+ NK cells; Trial 3): 87.5%
percentage of CD107+ NK cells (NKG2A−/NKG2C+ NK cells; Trial 3): 87.7%
percentage of IFNG+ NK cells (NKG2A−/NKG2C+ NK cells; Trial 3): 79.8%
percentage of TNF+ NK cells (NKG2A−/NKG2C+ NK cells; Trial 3): 70.1%
percentage of CCL3+ NK cells (NKG2A−/NKG2C+ NK cells; Trial 4): 61.5%
percentage of CD107+ NK cells (NKG2A−/NKG2C+ NK cells; Trial 4): 63.2%
percentage of IFNG+ NK cells (NKG2A−/NKG2C+ NK cells; Trial 4): 54.1%
percentage of TNF+ NK cells (NKG2A−/NKG2C+ NK cells; Trial 4): 47.8%
percentage of CCL3+ NK cells (NKG2A−/NKG2C+ NK cells; Trial 5): 77.3%
percentage of CD107+ NK cells (NKG2A−/NKG2C+ NK cells; Trial 5): 76.5%
percentage of IFNG+ NK cells (NKG2A−/NKG2C+ NK cells; Trial 5): 70%
percentage of TNF+ NK cells (NKG2A−/NKG2C+ NK cells; Trial 5): 66.1%
percentage of CCL3+ NK cells (NKG2A−/NKG2C+ NK cells; Trial 6): 55.6%
percentage of CD107+ NK cells (NKG2A−/NKG2C+ NK cells; Trial 6): 55.3%
percentage of IFNG+ NK cells (NKG2A−/NKG2C+ NK cells; Trial 6): 45.4%
percentage of TNF+ NK cells (NKG2A−/NKG2C+ NK cells; Trial 6): 37.8%
percentage CCL3+ NK cells (NKG2A−/NKG2C− NK cells; Trial 1): 30.7%
percentage CD107+ NK cells (NKG2A−/NKG2C− NK cells; Trial 1): 21.8%
percentage TNF+ NK cells (NKG2A−/NKG2C− NK cells; Trial 1): 4.13%
percentage of IFNG+ NK cells (NKG2A−/NKG2C− NK cells; Trial 1): 13.3%
percentage CCL3+ NK cells (NKG2A−/NKG2C− NK cells; Trial 2): 49.5%
percentage CD107+ NK cells (NKG2A−/NKG2C− NK cells; Trial 2): 27.4%
percentage TNF+ NK cells (NKG2A−/NKG2C− NK cells; Trial 2): 7.88%
percentage of IFNG+ NK cells (NKG2A−/NKG2C− NK cells; Trial 2): 23.4%
percentage CCL3+ NK cells (NKG2A−/NKG2C− NK cells; Trial 3): 47%
percentage CD107+ NK cells (NKG2A−/NKG2C− NK cells; Trial 3): 41.8%
percentage TNF+ NK cells (NKG2A−/NKG2C− NK cells; Trial 3): 14.2%
percentage of IFNG+ NK cells (NKG2A−/NKG2C− NK cells; Trial 3): 34.9%
percentage CCL3+ NK cells (NKG2A−/NKG2C− NK cells; Trial 4): 27.4%
percentage CD107+ NK cells (NKG2A−/NKG2C− NK cells; Trial 4): 24%
percentage TNF+ NK cells (NKG2A−/NKG2C− NK cells; Trial 4): 7.92%
percentage of IFNG+ NK cells (NKG2A−/NKG2C− NK cells; Trial 4): 16.4%
percentage CCL3+ NK cells (NKG2A−/NKG2C− NK cells; Trial 5): 22.9%
percentage CD107+ NK cells (NKG2A−/NKG2C− NK cells; Trial 5): 17.2%
percentage TNF+ NK cells (NKG2A−/NKG2C− NK cells; Trial 5): 5.21%
percentage of IFNG+ NK cells (NKG2A−/NKG2C− NK cells; Trial 5): 12.7%
percentage CCL3+ NK cells (NKG2A−/NKG2C− NK cells; Trial 6): 22.6%
percentage CD107+ NK cells (NKG2A−/NKG2C− NK cells; Trial 6): 20.5%
percentage TNF+ NK cells (NKG2A−/NKG2C− NK cells; Trial 6): 4.34%
percentage of IFNG+ NK cells (NKG2A−/NKG2C− NK cells; Trial 6): 10.9%
effect on NKG2A+/NKG2C− NK cell inhibition (in words) (NKG2A+/NKG2C− NK cells; K562 expressing HLA-E, CD107a, IFNG, TNF, CCL3): strong inhibitory
percentage of CCL3+ NK cells (NKG2A+/NKG2C− NK cells; Trial 1): 1.37%
percentage of CD107a+ NK cells (NKG2A+/NKG2C− NK cells; Trial 1): 0.52%
percentage of IFNG+ NK cells (NKG2A+/NKG2C− NK cells; Trial 1): 0.13%
percentage of TNF+ NK cells (NKG2A+/NKG2C− NK cells; Trial 1): 0.05%
percentage of CCL3+ NK cells (NKG2A+/NKG2C− NK cells; Trial 2): 1.85%
percentage of CD107a+ NK cells (NKG2A+/NKG2C− NK cells; Trial 2): 0.72%
percentage of IFNG+ NK cells (NKG2A+/NKG2C− NK cells; Trial 2): 0.21%
percentage of TNF+ NK cells (NKG2A+/NKG2C− NK cells; Trial 2): 0.11%
percentage of CCL3+ NK cells (NKG2A+/NKG2C− NK cells; Trial 3): 1.62%
percentage of CD107a+ NK cells (NKG2A+/NKG2C− NK cells; Trial 3): 0.59%
percentage of IFNG+ NK cells (NKG2A+/NKG2C− NK cells; Trial 3): 0.49%
percentage of TNF+ NK cells (NKG2A+/NKG2C− NK cells; Trial 3): 0.1%
percentage of CCL3+ NK cells (NKG2A+/NKG2C− NK cells; Trial 4): 0.64%
percentage of CD107a+ NK cells (NKG2A+/NKG2C− NK cells; Trial 4): 0.71%
percentage of IFNG+ NK cells (NKG2A+/NKG2C− NK cells; Trial 4): 0.16%
percentage of TNF+ NK cells (NKG2A+/NKG2C− NK cells; Trial 4): 0.08%
percentage of CCL3+ NK cells (NKG2A+/NKG2C− NK cells; Trial 5): 1.26%
percentage of CD107a+ NK cells (NKG2A+/NKG2C− NK cells; Trial 5): 0.64%
percentage of IFNG+ NK cells (NKG2A+/NKG2C− NK cells; Trial 5): 0.28%
percentage of TNF+ NK cells (NKG2A+/NKG2C− NK cells; Trial 5): 0.18%
percentage of CCL3+ NK cells (NKG2A+/NKG2C− NK cells; Trial 6): 2.68%
percentage of CD107a+ NK cells (NKG2A+/NKG2C− NK cells; Trial 6): 1.96%
percentage of IFNG+ NK cells (NKG2A+/NKG2C− NK cells; Trial 6): 0.67%
percentage of TNF+ NK cells (NKG2A+/NKG2C− NK cells; Trial 6): 0.38%
